{"source": "patent US12504431B2", "about": "“Biomarkers for a therapy comprising a sorafenib compound” (Eisai R&D Management Co., Ltd., priority 2018, dated 2025)", "key": {"[1]": {"test": "Relative body weight changes in mice with FGF21-TF and Mock-TF tumors", "assay_type": "in vivo, female nude mice", "details": "LEN 10 mg/kg and 30 mg/kg, SOR 30 mg/kg, orally once daily; FIG. 2", "description": "(§1) Methods: Human FGF21 and Mock-transfected HCC PLC/PRF/5 cells (FGF21-TF and Mock-TF, respectively) were established by using piggy-back system. To evaluate antitumor activity against these tumors, 4.2×10^6 cells of FGF21-TF or 4.3×10^6 cells of Mock-TF were subcutaneously injected into female nude mice (Charles River, Japan) with matrigel (BD Biosciences). When tumor volumes reached approximately 200-300 mm3, mice were divided into each group according to their tumor volumes and either lenvatinib mesylate (abbreviated as LEN) (10 mg/kg and 30 mg/kg) or Sorafenib tosylate (abbreviated as SOR) (30 mg/kg) was orally administered once daily. Follow-up analysis of a HCC patient-derived xenograft (PDX)-derived tumor (LI0334 HCC PDX tumor model treated with 3 mM HCl (vehicle for lenvatinib)) assessed FGF21 expression levels by immunohistochemistry. Three μm thick sections of paraffin-embedded tumor samples were de-paraffinized and hydrated. Antigen retrieval was performed by incubation of the samples in Dako REAL Target Retrieval sol. (pH6.0) (Dako) for 30 minutes. Endogenous hydrogen peroxidase activity was blocked by incubating the slides for 10 min with 3% hydrogen peroxide. The slides were incubated overnight with primary antibody, human rabbit anti-human FGF21 (ab64857. Abcam) at 1:100 in 1% BSA/PBS at 4° C. […]"}, "LI0334 HCC PDX tumor": {"system": "LI0334 HCC PDX tumor", "details": "PDX tumor highly expressing FGF21; reported in Matsuki et al., AACR 2017; cited from earlier work"}, "[2]": {"system": "Human FGF21-transfected HCC PLC/PRF/5 cells (FGF21-TF)", "test": "Antitumor activity in FGF21-TF tumor xenograft model in mice", "assay_type": "in vivo, female nude mice", "details": "LEN 10 mg/kg and 30 mg/kg, SOR 30 mg/kg, orally once daily; FIG. 1", "description": "as §1"}, "[3]": {"system": "Mock-transfected HCC PLC/PRF/5 cells (Mock-TF)", "test": "Antitumor activity in Mock-TF tumor xenograft model in mice", "assay_type": "in vivo, female nude mice", "details": "LEN 10 mg/kg and 30 mg/kg, SOR 30 mg/kg, orally once daily; FIG. 1", "description": "as §1"}, "unresectable HCC": {"system": "unresectable HCC", "test": "Phase 3 study E7080-G000-304: OS and PFS by baseline serum FGF21 level", "assay_type": "in vivo, human", "details": "for MST for PFS, high FGF21 group / MST for PFS, low FGF21 group / HR for PFS, high vs low FGF21 group: PFS by RECIST 1.1 (IIR); for MST for PFS, high FGF21 group / median OS (MST), high FGF21 group: baseline serum FGF21 at or above third quartile cutoff (688 ng/L); for MST for PFS, low FGF21 group / median OS (MST), low FGF21 group: baseline serum FGF21 below third quartile cutoff (688 ng/L); for HR for PFS, high vs low FGF21 group / HR for OS, high vs low FGF21 group: univariate Cox regression, third quartile cutoff (688 ng/L); for difference of PFS (RECIST 1.1) between high and low baseline FGF21 groups: third quantile cutoff point", "protocol": "E7080-G000-304 was a multicenter, randomized, open-label, noninferiority Phase 3 study to compare the efficacy and safety of lenvatinib versus sorafenib as a first-line systemic treatment in subjects with unresectable HCC. Subjects were randomly assigned in a 1:1 ratio to treatment with either lenvatinib 12 mg (baseline body weight [BW]≥60 kg) or 8 mg (baseline BW<60 kg) given once daily (QD) orally or sorafenib 400 mg given twice daily (BID) orally. Subjects were stratified by region, presence or absence of macroscopic portal vein invasion (MPVI) or extrahepatic spread (EHS) or both, Eastern Cooperative Oncology Group Performance Status (ECOG PS) 0 or 1, and BW (<60 kg or ≥60 kg). A total of 951 subjects (476 lenvatinib; 475 sorafenib) were enrolled and treated. Lenvatinib and sorafenib were self-administered by the subjects orally, at the same time each day (consistently either with or without food) in continuous 28-day cycles. Subjects received study treatment until disease progression, development of unacceptable toxicity, subject request, or withdrawal of consent.\nOf the 954 subjects enrolled in the clinical study and assigned to receive lenvatinib or sorafenib, 407 subjects (42.7% of all ITT subjects, lenvatinib arm, n=279 and sorafenib arm, n=128) were included in blood serum biomarker assay.\nSerum samples were collected at Day 1 of Cycle1 (pre-treatment). The serum levels of FGF21 at Day 1 of Cycle 1 (baseline level) in Samples from 279 subjects in the lenvatinib arm and 128 subjects in the sorafenib arm (total 407 subjects) were determined by enzyme-linked immunosorbent assay (ELISA). All biomarker data were transferred to study data tabulation model (SDTM) in accordance with the data transfer specification developed separately. Correlation between the serum baseline level of FGF21 and clinical outcome, such as progression free survival (PFS) was assessed. PFS was defined as the time from the date of randomization to the date of first documentation of disease progression or death.\nAll statistical analyses were performed by the Clinical Data Science department at Eisai Co., Ltd. (Tokyo, Japan) after the clinical study was completed and a snapshot of the database was obtained on 13 Nov. 2016. For the correlation analyses with PFS, data sets based on independent imaging review (IIR) by RECIST 1.1 were used. Statistical analyses were performed using SAS version 9.3.\nFor each baseline level of blood serum biomarker, correlation analysis with survival outcome measures (OS and PFS) was performed using univariate Cox regression for the lenvatinib arm and the sorafenib arm separately.\nSubjects were divided into two high-low groups based on the baseline level of each blood serum biomarker. The cutoff point was third quartile. Association between the groups and survival outcome measures (OS and PFS) was explored using univariate Cox regression and the Log-rank test with the selected cutoff points."}}, "note": "Where a name gives a salt, the structure may show the parent alone.", "data": [{"compound": "COc1cc2nccc(Oc3ccc(NC(=O)NC4CC4)c(Cl)c3)c2cc1C(N)=O", "note": "[LEN, lenvatinib mesylate]", "values": [{"measurement": "body weight losses associated with tumor presence compared to non-treatment", "setting": "[1]", "result": "Neither treatment exacerbated body weight losses"}, {"measurement": "inhibition of the LI0334 HCC PDX tumor model", "setting": "LI0334 HCC PDX tumor", "result": "inhibited by LEN"}, {"measurement": "antitumor activity (tumor volume changes) in the FGF21-TF model", "setting": "[2]", "result": "showed activity"}, {"measurement": "antitumor activity (tumor volume changes) in the Mock-TF model", "setting": "[3]", "result": "showed antitumor activity"}]}, {"compound": "COc1cc2nccc(Oc3ccc(NC(=O)NC4CC4)c(Cl)c3)c2cc1C(N)=O", "note": "[Lenvatinib, 4-(3-chloro-4-(cyclopropylaminocarbonyl)aminophenoxy)-7-methoxy-6-quinolinecarboxamide]", "values": [{"measurement": "MST for PFS, high FGF21 group", "setting": "unresectable HCC", "result": 7.5}, {"measurement": "MST for PFS, low FGF21 group", "setting": "unresectable HCC", "result": 8.0}, {"measurement": "HR for PFS, high vs low FGF21 group", "setting": "unresectable HCC", "result": 1.184}, {"measurement": "median OS (MST), high FGF21 group", "setting": "unresectable HCC", "result": 10.9, "unit": "months"}, {"measurement": "median OS (MST), low FGF21 group", "setting": "unresectable HCC", "result": 18.0, "unit": "months"}, {"measurement": "difference of PFS (RECIST 1.1) between high and low baseline FGF21 groups", "setting": "unresectable HCC", "result": "no clear difference of PFS"}, {"measurement": "HR for OS, high vs low FGF21 group", "setting": "unresectable HCC", "result": 1.745}]}, {"compound": "CNC(=O)c1cc(Oc2ccc(NC(=O)Nc3ccc(Cl)c(C(F)(F)F)c3)cc2)ccn1", "note": "[SOR, Sorafenib tosylate]", "values": [{"measurement": "body weight losses associated with tumor presence compared to non-treatment", "setting": "[1]", "result": "Neither treatment exacerbated body weight losses"}, {"measurement": "antitumor activity (tumor volume changes) in the FGF21-TF model", "setting": "[2]", "result": "only LEN showed activity"}, {"measurement": "antitumor activity (tumor volume changes) in the Mock-TF model", "setting": "[3]", "result": "showed antitumor activity"}]}, {"compound": "CNC(=O)c1cc(Oc2ccc(NC(=O)Nc3ccc(Cl)c(C(F)(F)F)c3)cc2)ccn1", "note": "[Sorafenib, 4-[4-[[4-chloro-3-(trifluoromethyl)phenyl]carbamoylamino]phenoxy]-N-methylpyridine-2-carboxamide]", "values": [{"measurement": "MST for PFS, high FGF21 group", "setting": "unresectable HCC", "result": 2.4}, {"measurement": "MST for PFS, low FGF21 group", "setting": "unresectable HCC", "result": 5.5}, {"measurement": "HR for PFS, high vs low FGF21 group", "setting": "unresectable HCC", "result": 1.783}, {"measurement": "median OS (MST), high FGF21 group", "setting": "unresectable HCC", "result": 6.8, "unit": "months"}, {"measurement": "median OS (MST), low FGF21 group", "setting": "unresectable HCC", "result": 17.8, "unit": "months"}, {"measurement": "difference of PFS (RECIST 1.1) between high and low baseline FGF21 groups", "setting": "unresectable HCC", "result": "short median PFS (RECIST 1.1) for high group than that of low group"}, {"measurement": "HR for OS, high vs low FGF21 group", "setting": "unresectable HCC", "result": 3.341}]}]}
